Legend:
directly sowed rice = experiment: Test Example 3: effect on crop by foliage application, Wagner pot (Table 18, symbol b); format: in vivo; conditions: 320 g/ha
How it was run: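 Plants were sown in alluvial soil held under 0.1–0.5 cm standing water and grown 14 days in a greenhouse at 25–30 °C. An emulsifiable formulation, water-diluted to the set dose, was then sprayed onto the foliage, and effects were scored three weeks later using previously defined criteria.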

southern crabgrass = experiment: Test Example 4: herbicidal effect by soil treatment (Table 19, symbol F); format: in vivo, southern crabgrass (Digitaria ciliaris); conditions: for herbicidal effect rating, F: southern crabgrass: 320 g/ha
How it was run: (§1)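 Step 1: sow seeds in sterilized diluvial soil, cover ~1.5 cm. Step 2: spray diluted emulsion onto soil surface at predetermined rate. Step 3: greenhouse, 25–30° C, three weeks. Step 4: grade effect on each plant by earlier criteria.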

green foxtail = experiment: Test Example 4: herbicidal effect by soil treatment (Table 19, symbol G); format: in vivo, green foxtail (Setaria viridis); conditions: for herbicidal effect rating, G: green foxtail: 320 g/ha
How it was run: as §1

barnyard grass [1] = experiment: Test Example 4: herbicidal effect by soil treatment (Table 19, symbol H); format: in vivo, barnyard grass (Echinochloa crus-galli); conditions: for herbicidal effect rating, H: barnyard grass: 320 g/ha
How it was run: as §1

wild oat = experiment: Test Example 4: herbicidal effect by soil treatment (Table 19, symbol I); format: in vivo, wild oat (Avena fatua); conditions: for herbicidal effect rating, I: wild oat: 320 g/ha
How it was run: as §1

blackgrass = experiment: Test Example 4: herbicidal effect by soil treatment (Table 19, symbol J); format: in vivo, blackgrass (Alopecurus myosuroides); conditions: for herbicidal effect rating, J: blackgrass: 320 g/ha
How it was run: as §1

velvetleaf = experiment: Test Example 4: herbicidal effect by soil treatment (Table 19, symbol M); format: in vivo, velvetleaf (Abutilon theophrasti); conditions: for herbicidal effect rating, M: velvetleaf: 320 g/ha
How it was run: as §1

redroot pigweed [2] = experiment: Test Example 4: herbicidal effect by soil treatment (Table 19, symbol N); format: in vivo, redroot pigweed (Amaranthus retroflexus); conditions: for herbicidal effect rating, N: redroot pigweed: 320 g/ha
How it was run: as §1

persian speedwell [3] = experiment: Test Example 4: herbicidal effect by soil treatment (Table 19, symbol R); format: in vivo, Persian speedwell (Veronica persica); conditions: for herbicidal effect rating, R: persian speedwell: 320 g/ha
How it was run: as §1

corn [4] = experiment: Test Example 4: effect on crop by soil treatment (Table 19, symbol c); format: in vivo; conditions: 320 g/ha
How it was run: as §1

beet [5] = experiment: Test Example 4: effect on crop by soil treatment (Table 19, symbol f); format: in vivo; conditions: 320 g/ha
How it was run: as §1

barnyard grass [6] = experiment: Test Example 5: herbicidal effect by foliage application, plastic box (Table 20, symbol H); format: in vivo, barnyard grass (Echinochloa crus-galli); conditions: foliage application
How it was run: (§2)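 Foliar spray test: emulsion formulation diluted in water to a set application rate, sprayed onto 14-day-old plants raised in diluvial soil at 25° C to 30° C under glass. Both herbicidal effect and crop effect rated visually three weeks later.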

windgrass = experiment: Test Example 5: herbicidal effect by foliage application, plastic box (Table 20, symbol L); format: in vivo, windgrass (Apera spica-venti); conditions: foliage application
How it was run: as §2

persian speedwell [7] = experiment: Test Example 5: herbicidal effect by foliage application, plastic box (Table 20, symbol R); format: in vivo, Persian speedwell (Veronica persica); conditions: foliage application
How it was run: as §2

corn [8] = experiment: Test Example 5: effect on crop by foliage application, plastic box (Table 20, symbol c); format: in vivo; conditions: 320 g/ha
How it was run: as §2

beet [9] = experiment: Test Example 5: effect on crop by foliage application, plastic box (Table 20, symbol f); format: in vivo; conditions: 320 g/ha
How it was run: as §2

late watergrass = experiment: Test Example 2: herbicidal activity, application during weed generation under submerged conditions (Table 17, symbol A); format: in vivo, late watergrass (Echinochloa oryzicola); conditions: AAH 80 g/ha; application during weed generation, submerged conditions
How it was run: (§3)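 Effect on each weed is rated three weeks post-treatment, using the same scoring criteria as the preceding test. Plants grow from mixed-sown seed in flooded alluvial soil (4 cm water) at 25° C. to 30° C., and are treated at one to two leaves with diluted emulsion dropped onto the water.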

Japanese bulrush = experiment: Test Example 2: herbicidal activity, application during weed generation under submerged conditions (Table 17, symbol B); format: in vivo, Japanese bulrush (Schoenoplectus juncoides); conditions: AAH 80 g/ha; application during weed generation, submerged conditions
How it was run: as §3

oval-leafed pondweed = experiment: Test Example 2: herbicidal activity, application during weed generation under submerged conditions (Table 17, symbol C); format: in vivo, oval-leafed pondweed (Monochoria vaginalis); conditions: AAH 80 g/ha; application during weed generation, submerged conditions
How it was run: as §3

false cleavers [10] = experiment: Test Example 4: herbicidal effect by soil treatment (Table 19, symbol Q); format: in vivo, false cleavers (Galium spurium)
How it was run: as §1

redroot pigweed [11] = experiment: Test Example 5: herbicidal effect by foliage application, plastic box (Table 20, symbol N); format: in vivo, redroot pigweed (Amaranthus retroflexus); conditions: foliage application
How it was run: as §2

chickweed = experiment: Test Example 5: herbicidal effect by foliage application, plastic box (Table 20, symbol P); format: in vivo, common chickweed (Stellaria media); conditions: foliage application
How it was run: as §2

false cleavers [12] = experiment: Test Example 5: herbicidal effect by foliage application, plastic box (Table 20, symbol Q); format: in vivo, false cleavers (Galium spurium); conditions: foliage application
How it was run: as §2

[13] = 320 g/ha, 3 weeks after application
[14] = amount of applied herbicide 80 g/ha
[15] = 80 g/ha, three weeks after application
[16] = 320 g/ha, evaluated three weeks after application
[17] = evaluated three weeks after application

With `Cc1nn(C)c(=O)c(-c2c(-c3ccc(Cl)cc3)sc3ccc(F)cc23)c1O` [Compound No. 2-010, 4-(2-(4-chlorophenyl)-5-fluorobenzo[b]thiophen-3-yl)-5-hydroxy-2,6-dimethylpyridazin-3(2H)-one] the “effect on crop b (directly sowed rice), rating 0-5” value (directly sowed rice) was 0 (Herbicidal rate of 5% or less (almost no effect)), the “herbicidal effect rating, F: southern crabgrass” value (southern crabgrass) was 5 (Herbicidal rate of 90% or more (almost completely withered)) and the “herbicidal effect rating, G: green foxtail” value (green foxtail) was 5 (Herbicidal rate of 90% or more (almost completely withered)). For the same molecule, the “herbicidal effect rating, H: barnyard grass” value (barnyard grass [1]) was 5 (Herbicidal rate of 90% or more (almost completely withered)), the “herbicidal effect rating, I: wild oat” value (wild oat) was 1 (Herbicidal rate of 5% or more and less than 20%) and the “herbicidal effect rating, J: blackgrass” value (blackgrass) was 0 (Herbicidal rate of 5% or less (almost no effect)). For the same molecule, the “herbicidal effect rating, M: velvetleaf” value (velvetleaf) was 5 (Herbicidal rate of 90% or more (almost completely withered)), the “herbicidal effect rating, N: redroot pigweed” value (redroot pigweed [2]) was 5 (Herbicidal rate of 90% or more (almost completely withered)) and the “herbicidal effect rating, R: persian speedwell” value (persian speedwell [3]) was 5 (Herbicidal rate of 90% or more (almost completely withered)). The “effect rating on crop, c: corn” value (corn [4]) was 0 (Herbicidal rate of 5% or less (almost no effect)), the “effect rating on crop, f: beet” value (beet [5]) was 3 (Herbicidal rate of 40% or more and less than 70%) and the “effect on barnyard grass (H)” value (barnyard grass [6]; [13]) was 5 (Herbicidal rate of 90% or more (almost completely withered)). For the same molecule, the “effect on windgrass (L)” value (windgrass; [13]) was 5 (Herbicidal rate of 90% or more (almost completely withered)), the “effect on persian speedwell (R)” value (persian speedwell [7]; [13]) was 5 (Herbicidal rate of 90% or more (almost completely withered)) and the “effect on corn (c)” value (corn [8]; 3 weeks after application) was 0 (Herbicidal rate of 5% or less (almost no effect)). The “effect on beet (f)” value (beet [9]; 3 weeks after application) was 5 (Herbicidal rate of 90% or more (almost completely withered)).
In the case of `CCOc1ccccc1-c1sc2cc(OC)ccc2c1-c1c(O)c(C)nn(C)c1=O` [3-070], the “herbicidal effect rating, A: late watergrass” value (late watergrass) is reported as 3 (Herbicidal rate of 40% or more and less than 70%), the “herbicidal effect rating, B: Japanese bulrush” value (Japanese bulrush) is reported as 5 (Herbicidal rate of 90% or more (almost completely withered)) and the “herbicidal effect rating, C: oval-leafed pondweed” value (oval-leafed pondweed) is reported as 4 (Herbicidal rate of 70% or more and less than 90%). The “F: southern crabgrass, herbicidal effect grade” value (southern crabgrass; [14]) was 4 (Herbicidal rate of 70% or more and less than 90%), the “G: green foxtail, herbicidal effect grade” value (green foxtail; [14]) was 3 (Herbicidal rate of 40% or more and less than 70%) and the “H: barnyard grass, herbicidal effect grade” value (barnyard grass [1]; [14]) was 0 (Herbicidal rate of 5% or less (almost no effect)). The “I: wild oat, herbicidal effect grade” value (wild oat; [14]) was 0 (Herbicidal rate of 5% or less (almost no effect)), the “J: blackgrass, herbicidal effect grade” value (blackgrass; [14]) was 0 (Herbicidal rate of 5% or less (almost no effect)) and the “M: velvetleaf, herbicidal effect grade” value (velvetleaf; [14]) was 0 (Herbicidal rate of 5% or less (almost no effect)). The “N: redroot pigweed, herbicidal effect grade” value (redroot pigweed [2]; [14]) was 0 (Herbicidal rate of 5% or less (almost no effect)), the “Q: false cleavers, herbicidal effect grade” value (false cleavers [10]; [14]) was 1 (Herbicidal rate of 5% or more and less than 20%) and the “R: persian speedwell, herbicidal effect grade” value (persian speedwell [3]; [14]) was 5 (Herbicidal rate of 90% or more (almost completely withered)). The “H: barnyard grass, herbicidal effect grade” value (barnyard grass [6]; [15]) was 5 (Herbicidal rate of 90% or more (almost completely withered)), the “L: windgrass, herbicidal effect grade” value (windgrass; [15]) was 5 (Herbicidal rate of 90% or more (almost completely withered)) and the “N: redroot pigweed, herbicidal effect grade” value (redroot pigweed [11]; [15]) was 5 (Herbicidal rate of 90% or more (almost completely withered)). For the same molecule, the “P: chickweed, herbicidal effect grade” value (chickweed; [15]) was 5 (Herbicidal rate of 90% or more (almost completely withered)), the “Q: false cleavers, herbicidal effect grade” value (false cleavers [12]; [15]) was 5 (Herbicidal rate of 90% or more (almost completely withered)) and the “R: persian speedwell, herbicidal effect grade” value (persian speedwell [7]; [15]) was 5 (Herbicidal rate of 90% or more (almost completely withered)).
For `COc1cc(F)ccc1-c1sc2ccc(Cl)cc2c1-c1c(O)c(C)nn(C)c1=O` [Compound No. 2-095, 4-(5-chloro-2-(4-fluoro-2-methoxyphenyl)benzo[b]thiophen-3-yl)-5-hydroxy-2,6-dimethylpyridazin-3(2H)-one], the “effect on crop b (directly sowed rice), rating 0-5” value (directly sowed rice) was 1 (Herbicidal rate of 5% or more and less than 20%), the “herbicidal effect rating, F: southern crabgrass” value (southern crabgrass) was 3 (Herbicidal rate of 40% or more and less than 70%) and the “herbicidal effect rating, G: green foxtail” value (green foxtail) was 4 (Herbicidal rate of 70% or more and less than 90%). For the same molecule, the “herbicidal effect rating, H: barnyard grass” value (barnyard grass [1]) was 4 (Herbicidal rate of 70% or more and less than 90%), the “herbicidal effect rating, I: wild oat” value (wild oat) was 0 (Herbicidal rate of 5% or less (almost no effect)) and the “herbicidal effect rating, J: blackgrass” value (blackgrass) was 3 (Herbicidal rate of 40% or more and less than 70%). The “herbicidal effect rating, M: velvetleaf” value (velvetleaf) was 0 (Herbicidal rate of 5% or less (almost no effect)), the “herbicidal effect rating, N: redroot pigweed” value (redroot pigweed [2]) was 4 (Herbicidal rate of 70% or more and less than 90%) and the “herbicidal effect rating, Q: false cleavers” value (false cleavers [10]; 320 g/ha) was 4 (Herbicidal rate of 70% or more and less than 90%). The “herbicidal effect rating, R: persian speedwell” value (persian speedwell [3]) was 4 (Herbicidal rate of 70% or more and less than 90%), the “effect rating on crop, c: corn” value (corn [4]) was 0 (Herbicidal rate of 5% or less (almost no effect)) and the “effect rating on crop, f: beet” value (beet [5]) was 4 (Herbicidal rate of 70% or more and less than 90%). The “herbicidal effect on H: barnyard grass” value (barnyard grass [6]; [16]) was 4 (Herbicidal rate of 70% or more and less than 90%), the “herbicidal effect on L: windgrass” value (windgrass; [16]) was 5 (Herbicidal rate of 90% or more (almost completely withered)) and the “herbicidal effect on N: redroot pigweed” value (redroot pigweed [11]; [16]) was 5 (Herbicidal rate of 90% or more (almost completely withered)). For the same molecule, the “herbicidal effect on P: chickweed” value (chickweed; [16]) was 5 (Herbicidal rate of 90% or more (almost completely withered)), the “herbicidal effect on Q: false cleavers” value (false cleavers [12]; [16]) was 5 (Herbicidal rate of 90% or more (almost completely withered)) and the “herbicidal effect on R: persian speedwell” value (persian speedwell [7]; [16]) was 5 (Herbicidal rate of 90% or more (almost completely withered)). The “effect on crop, c: corn” value (corn [8]; [17]) was 1 (Herbicidal rate of 5% or more and less than 20%) and the “effect on crop, f: beet” value (beet [9]; [17]) was 5 (Herbicidal rate of 90% or more (almost completely withered)).
